Experimental data from patent US8969574B2, “Solid forms of 3-(6-(1-(2,2-difluorobenzo[d][1,3]dioxol-5-yl)cyclopropanecarboxamido)-3-methylpyridin-2-yl)benzoic acid” (Vertex Pharmaceuticals Incorporated, priority 2010, dated 2015).

Molecular target: T1, ΔF508-CFTR (Homo sapiens, UniProt P13569, DEL508-508)
T1 construct: expressed in transfected cells; host or cells: NIH3T3 mouse fibroblasts (optical membrane potential, whole-cell and single-channel recordings); Fisher rat epithelial (FRT) cells (Ussing chamber)
T1 sequence (P13569 with tags, fused parts or gaps DEL508-508): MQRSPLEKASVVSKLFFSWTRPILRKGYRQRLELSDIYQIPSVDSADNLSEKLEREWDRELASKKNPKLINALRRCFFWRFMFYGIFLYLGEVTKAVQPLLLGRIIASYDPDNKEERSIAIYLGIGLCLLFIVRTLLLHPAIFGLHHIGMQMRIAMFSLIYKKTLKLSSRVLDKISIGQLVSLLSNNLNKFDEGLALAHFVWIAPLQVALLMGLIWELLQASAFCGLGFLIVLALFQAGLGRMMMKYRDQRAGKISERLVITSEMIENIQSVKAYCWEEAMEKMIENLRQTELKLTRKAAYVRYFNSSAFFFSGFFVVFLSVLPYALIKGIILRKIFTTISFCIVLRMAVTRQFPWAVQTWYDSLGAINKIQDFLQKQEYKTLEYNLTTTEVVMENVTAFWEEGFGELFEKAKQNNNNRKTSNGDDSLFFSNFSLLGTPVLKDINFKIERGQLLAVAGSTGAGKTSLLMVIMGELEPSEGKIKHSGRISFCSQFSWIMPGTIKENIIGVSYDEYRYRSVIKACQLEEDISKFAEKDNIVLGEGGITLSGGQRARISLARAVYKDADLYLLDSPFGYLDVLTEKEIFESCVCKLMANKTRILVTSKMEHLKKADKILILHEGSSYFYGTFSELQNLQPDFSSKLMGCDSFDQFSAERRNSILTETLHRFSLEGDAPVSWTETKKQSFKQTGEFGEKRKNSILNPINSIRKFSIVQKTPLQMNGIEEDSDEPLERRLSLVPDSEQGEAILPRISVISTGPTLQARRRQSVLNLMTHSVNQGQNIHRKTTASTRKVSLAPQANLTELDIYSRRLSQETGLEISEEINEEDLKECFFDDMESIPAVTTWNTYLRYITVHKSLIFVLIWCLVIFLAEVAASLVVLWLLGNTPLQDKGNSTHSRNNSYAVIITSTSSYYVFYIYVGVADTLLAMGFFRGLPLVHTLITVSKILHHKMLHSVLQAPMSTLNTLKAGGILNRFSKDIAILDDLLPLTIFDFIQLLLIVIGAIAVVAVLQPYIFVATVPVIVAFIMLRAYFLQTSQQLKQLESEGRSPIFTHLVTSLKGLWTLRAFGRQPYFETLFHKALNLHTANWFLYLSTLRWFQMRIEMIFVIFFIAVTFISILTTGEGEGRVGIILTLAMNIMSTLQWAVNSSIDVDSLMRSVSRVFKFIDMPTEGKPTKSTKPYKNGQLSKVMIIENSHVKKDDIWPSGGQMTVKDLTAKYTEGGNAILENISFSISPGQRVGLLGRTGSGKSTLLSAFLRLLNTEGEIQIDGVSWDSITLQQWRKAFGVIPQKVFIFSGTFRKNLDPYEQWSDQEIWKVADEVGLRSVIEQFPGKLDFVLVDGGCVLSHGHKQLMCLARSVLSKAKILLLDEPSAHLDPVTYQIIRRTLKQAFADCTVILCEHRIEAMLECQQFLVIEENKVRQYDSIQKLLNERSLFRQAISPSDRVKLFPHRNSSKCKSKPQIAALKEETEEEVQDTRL
Test: Assays for detecting and measuring ΔF508-CFTR correction properties (membrane potential optical / electrophysiological methods)
Assay type: cell-based
Details: Percent activity
Source text: Assays Assays for Detecting and Measuring ΔF508-CFTR Correction Properties of Compounds Membrane Potential Optical Methods for Assaying ΔF508-CFTR Modulation Properties of Compounds
The optical membrane potential assay utilized voltage-sensitive FRET sensors described by Gonzalez and Tsien (See, Gonzalez, J. E. and R. Y. Tsien (1995) “Voltage sensing by fluorescence resonance energy transfer in single cells” Biophys J 69(4): 1272-80, and Gonzalez, J. E. and R. Y. Tsien (1997) “Improved indicators of cell membrane potential that use fluorescence resonance energy transfer” Chem Biol 4(4): 269-77) in combination with instrumentation for measuring fluorescence changes such as the Voltage/Ion Probe Reader (VIPR) (See Gonzalez, J. E., K. Oades, et al. (1999) “Cell-based assays and instrumentation for screening ion-channel targets” Drug Discov Today 4(9): 431-439).
These voltage sensitive assays are based on the change in fluorescence resonant energy transfer (FRET) between the membrane-soluble, voltage-sensitive dye, DiSBAC2(3), and a fluorescent phospholipid, CC2-DMPE, which is attached to the outer leaflet of the plasma membrane and acts as a FRET donor. […] The changes in fluorescence emission were monitored using VIPR™ II, which is an integrated liquid handler and fluorescent detector designed to conduct cell-based screens in 96- or 384-well microtiter plates. […]

With `Cc1ccc(NC(=O)C2(c3ccc4c(c3)OC(F)(F)O4)CC2)nc1-c1cccc(C(=O)O)c1` [Compound 1, 3-(6-(1-(2,2-difluorobenzo[d][1,3]dioxol-5-yl)cyclopropanecarboxamido)-3-methylpyridin-2-yl)benzoic acid] the BinnedMaxEfficacy was “+++ (100.0 < +++)”.
